Reference: patent US7266458B2, “BioMAP analysis” (Bioseek, Inc., priority 2000, dated 2007)

Experiments:
[1] = system: human umbilical vein endothelial cells (HUVEC); experiment: Optimized inflammatory assay combination (IL-1+TNF-α+IFN-γ) with added agents, cell-based ELISA biomap; conditions: for biomap in the optimized assay combination: 10 μM NHGA, 200 YM PDTC, 9 μM PD098059, 125-500 μM ibuprofen, TNF-α+IFN-γ+IL-1, 24 hours; for reference biomaps compared by pattern similarity and cluster analysis: hierarchical clustering, FIG. 4C
Description: After 24 hours, cultures are washed and evaluated for the cell surface expression of ICAM-1 (1), VCAM-1 (2), E-selectin (3), IL-8 (4), CD31 (5), HLA-DR (6) and MIG (7) by cell-based ELISA performed as described above.
Confluent cultures of HUVEC cells are treated with TNF-α (5 ng/ml)+IFN-γ (100 ng/ml)+IL-1 (1 ng/ml) in the presence or absence of agents or buffers at the concentrations indicated in Table 1. Compounds are obtained from commercial sources and prepared in a suitable buffer (water, base media, DMSO, methanol or ethanol). After 24 hours, cultures are washed and evaluated for the cell surface expression of ICAM-1 (1), VCAM-1 (2), E-selectin (3), IL-8 (4), CD31 (5), HLA-DR (6) and MIG (7) by cell-based ELISA performed as described above. A color-coded representation of the resulting biomaps developed from the data is shown. […] Control assay combinations for each agent include an appropriate concentration of the diluent buffer.
Readout patterns are analyzed by hierarchical clustering techniques, and are visualized as a tree diagram in which a) each terminal branch point represents the readout pattern from one assay combination in one experiment; b) the length of the vertical distance from the upper horizontal line (no change and control patterns) to the termini are related to the extent of difference in the readout pattern from the control environment pattern; and c) the distance along, the branches from one terminal pattern value to another reflects the extent of difference between them. Similar patterns are thus clustered together.

[2] = system: human umbilical vein endothelial cells (HUVEC); experiment: Multiplex assay combinations for distinguishing mechanism of action (single cytokines, activating anti-p55); type: cell-based; conditions: 20 μM AA861, 10 μM NHGA
Description: Confluent cultures of HUVEC cells are treated with TNF-α (5 ng/ml), IFN-γ (100 ng/ml), IL-1 (20 ng/ml), the combination of TNF-α+IFN-γ+IL-1, or media (no cytokine) in the presence or absence of neutralizing anti-TNF-α, 20 μM AA861 or 10 μM NHGA. After 24 hours, cultures are washed and evaluated for the cell surface expression of ICAM-1 (1), VCAM-1 (2), E-selectin (3), IL-8 (4), and MIG (5) by cell-based ELISA performed as described in Example 1. A graphical representation of the resulting biomaps derived from the data is shown in FIG. 5, coded as described above.
Confirmation is performed by evaluating the test agent in assay combinations that include both physiologic and alternative pathway activators. Confluent cultures of HUVEC cells are treated with TNF-α (5 ng/ml), IL-1 (20 ng/ml), an activating antibody against the TNF-α receptor p55, or media. After 24 hours, cultures are washed and evaluated for the cell surface expression of ICAM-1 (1), VCAM-1 (2), E-selectin (3), CD31 (4), and MIG (5) by cell-based ELISA performed as described above. A graphical representation of the resulting biomap, prepared from the data is shown in FIG. 6, coded as described above.

[3] = system: human umbilical vein endothelial cells (HUVEC); experiment: Morpholino antisense in HUVEC, cell surface expression by flow cytometry; type: cell-based
Source text: Morpholino phosphorodiamidate (MF) antisense oligonucleotides are used. Other chemical classes of antisense oligonucleotides that can be substituted for morpholinos include but are not limited to phosphorotioate oligonucleotides, N3′-P5′ phosphoramidate oligonucleotides (NP), locked nucleic acid (LNA), 2′-O-methoxyethyl nucleic acid (MOE), 2′-fluoro-arabinonucleic acid (FANA), peptide nucleic acids (PNA) (reviewed in Toulme, Nature Biotech. 19:17, 2001); siRNA (Elbashir et al. (2000) Nature 411:494-498); ribozymes (Kawasaki et al. (2002) Nat. Biotech 20:376-380); standard antisense (Veres et al. (1998) J. Virol. 72:1894-1901). In the present example, antisense oligonucleotides for TNF-R1 (p55) (5′-[…]-3′)(SEQ ID NO:1), and the beta-globin control oligo (5′-[…]-3′)(SEQ ID NO:2) (Gene Tools Inc.) are used. The transfection mixture is prepared by mixing […] of 200 mM EPEI (Ethoxylated PolyEthylenlmine), vortexed, incubated at room temperature for 20 minutes, and then mixed with 3.5 ml of serum-free media to give a final 0.6 μM morpholino concentration.
HUVEC cells are plated the day before in 24-well plates at 4-6×10e4 cells/well. Cells are washed once with serum-free media and incubated with 0.4 ml of the morpholino transfection mixture at 37° C. for 3 hours. Morpholino is removed, regular media ([…] Growth Media with 2% fetal calf serum, Clonetics) is added and cells allowed to recover overnight. The efficiency of loading of cells with morphino is monitored in cells incubated with a fluorescent morpholino, and is typically essentially 100 percent. HUVEC cells are then treated with either TNF-α (0.5 ng/ml), or IL-1 (1 ng/ml), or media only. After 4 hours, cells are harvested and evaluated for the cell surface expression of ICAM-1 (1), VCAM-1 (2), E-selectin (3), and CD31 (4) by flow cytometry. […] The TNF-R1 antisense specifically blocks induction of ICAM-1 and VCAM-1 by TNF-α, while it has no effect on induction of the same markers by the independent cell surface receptor for IL-1.

[4] = system: human umbilical vein endothelial cells (HUVEC); type: cell-based; parameters: key: Active BioMap profiles (indicated as “yes”) were significantly different from the profile obtained with the control vector; BioMAP profiles that were not different from control vector are indicated as “—”; conditions: NFkB Pathway genes; TNF-alpha, IL-1, IFN-gamma individually or in combination; vs control vector, p < 0.05, n = 3
Description: High-titer retrovirus preparations are generated by transient transfection of vector construct into a retroviral packaging cell line (AmphoPack-293;Clontech). […] Expression of BioMAP markers (ICAM-1, VCAM, etc.) is measured by a cell-based ELISA technique (Melrose, 1998, supra) that has been optimized such that changes in expression levels of >20% can be routinely detected as statistically significant effects (p<0.05). […] Cells were stained with the NGFr specific monoclonal antibody (Chemicon).
In the lower two panels IFN-gamma was added to all samples. Average values (ELISA OD) from triplicate samples are shown, error bars indicate standard deviation. Control is HUVEC transduced with the “empty” vector, which only encodes NGFr marker. Data are from a representative experiment. Results were reproduced in at least two experiments with HUVEC cells from different donors.
Gene over-expression vectors were generated for many members of the NFκB and Jak/STAT pathways, and measured BioMAP profiles in transduced HUVEC cells by a cell-based ELISA technique (Melrose, 1998, supra), in the presence of TNF-alpha, IL-1, IFN-gamma, individually or in combination. […] Average values (ELISA OD) from triplicate samples are shown. Control (_-_) is HUVEC transduced with the “empty” retroviral vector, which only encodes NGFr marker. Data shown are from a representative experiment.

[5] = system: human umbilical vein endothelial cells (HUVEC); experiment: Apoptosis assay panel (ceramide, TNF-α) with LDH release and cell-based ELISA; conditions: factor added to endothelial cell cultures, vs basal conditions
Source text: A panel of assay combinations that reproduces aspects of the response of the endothelial cells to inflammatory processes and stimuli enhancing apoptosis is used.
Retroviral vectors derived from the MSCV-based pMSCVneo vector (Clontech) are used to express genes in the cultured endothelial cells. […] Test genes are inserted downstream of the MSCV LTR, the marker gene is the enhanced green fluorescent protein (GFP) and the IRES is 600 bp fragment from EMCV virus (Jang, J. Virol. 63:1651, 1989). […] Retroviral vector plasmid DNA is transfected into AmphoPack-293 cells (Clontech) by modified calcium phosphate method according to manufacturer's protocol (MBS transfection kit, Stratagene). Cell supernatants are harvested 48 hours post-transfection, filtered to remove cell debris (0.45 pm) and transferred onto exponentially growing HUVEC cells. DEAE dextran (conc lopg/ml) is added to facilitate vector transduction. After a 5-8 hour incubation period viral supernatants are removed and cells cultured for an additional 40 hours. Gene transfer efficiency is determined by FACS, and is typically ≧80 percent. […] After 24 hours, transduced cells are evaluated for the surface expression ICAM-1 (1), VCAM-1 (2), and MIG (3) by cell-based ELISA for biomap analysis. For the expanded biomap, cell supernatants at 24 hours are collected and analyzed for the presence of LDH (4).

[6] = system: human umbilical vein endothelial cells (HUVEC); experiment: HUVEC treated with proinflammatory cytokines, readout parameters by cell-based ELISA; conditions: HUVEC cultured with cytokine(s) 24 hours, vs basal medium
Description: Primary human umbilical vein endothelial cells (HUVEC) are used. […] 2×10^4 cells/ml are cultured to confluence in EGM-2 (Clonetics).
After 24 hours, cultures are washed and evaluated for the presence of the parameters ICAM-1 (1), VCAM-1 (2), E-selectin (3), IL-8 (4), CD31 (5), HLA-DR (6) and MIG (7) by cell-based ELISA as described (Melrose, J. Immunol. 161:2457, 1998). For this, plates are blocked with 1% Blotto for 1 hr, and treated with primary antibodies (obtained from Pharmingen and Becton Dickinson) at 1 ng/ml for 2 hr. After washing, secondary peroxidase-conjugated anti-mouse IgG antibody (Promega) at 1:2500 is applied for 45 min. After washing, TMB substrate (Kierkegaard & Perry) is added and color developed. Development is stopped by addition of H2SO4 and the absorbance at 450 nm (subtracting the background absorbance at 600 nm) is read with a Molecular Dynamics plate reader. The relative expression levels of each parameter are indicated by the OD at 450 nm shown along the y-axis. The mean +/−SD from triplicate samples is shown.
After 24 hours, cultures are washed and evaluated for the presence of the parameters ICAM-1 (1), VCAM-1 (2), E-selectin (3), IL-8 (4), CD31 (5), HLA-DR (6) and MIG (7) by cell-based ELISA performed as described above, and are reported as the OD at 450 nm. The mean +/−SD from triplicate samples are shown. * indicates p<0.05 comparing results obtained with the two separate conditions.

[7] = 0.6 μM morpholino, IL-1 1 ng/ml, 4 hours
[8] = 0.6 μM morpholino, TNF-α 0.5 ng/ml, 4 hours

CC(Cc1ccc(O)c(O)c1)C(C)Cc1ccc(O)c(O)c1 (stereo not drawn) [NHGA, nordihydroguaiaretic acid]
biomap in the optimized assay combination [1]: altered biomaps
reference biomaps compared by pattern similarity and cluster analysis [1]: have similar reference biomaps and cluster together
cytokine signaling pathways targeted in the panel [2]: target multiple cytokine signaling pathways

COc1cccc(-c2cc(=O)c3ccccc3o2)c1N [PD098059]
biomap in the optimized assay combination [1]: altered biomaps
reference biomaps compared by pattern similarity and cluster analysis [1]: remain in the same cluster

S=C(S)N1CCCC1 [PDTC, pyrrolidine dithiocarbamate]
biomap in the optimized assay combination [1]: altered biomaps
reference biomaps compared by pattern similarity and cluster analysis [1]: have similar reference biomaps and cluster together

O=C(NC1=CC(=O)c2ccccc2C1=O)c1ccccc1 [PPM-18]
reference biomaps compared by pattern similarity and cluster analysis [1]: have similar reference biomaps and cluster together

O=c1cc(-c2ccc(O)cc2)oc2cc(O)cc(O)c12 [apigenin]
reference biomaps compared by pattern similarity and cluster analysis [1]: have similar reference biomaps and cluster together

CC(C)Cc1ccc(C(C)C(=O)O)cc1 (stereo not drawn) [ibuprofen]
biomap in the optimized assay combination [1]: visually different representations of biomaps

C[C@]12C=CC(=O)C=C1CC[C@@H]1[C@@H]2[C@@H](O)C[C@@]2(C)[C@H]1CC[C@]2(O)C(=O)CO [prednisolone]
reference biomaps compared by pattern similarity and cluster analysis [1]: related reference biomaps that are distinct from those of NFκB pathway inhibitors

TNF-R1 antisense: morpholino antisense oligonucleotide for TNF-R1 (p55), 5′-AGGTCAGGCACGGTGGAGAGGC-3′ (SEQ ID NO:1) (all phosphorodiamidate morpholino (PMO))
biomap vs control oligo biomap upon treatment with TNF-α [3]: altered biomap
induction of ICAM-1 by IL-1 [3, 7]: no effect
induction of VCAM-1 by IL-1 [3, 7]: no effect
induction of ICAM-1 by TNF-α [3, 8]: blocks
induction of VCAM-1 by TNF-α [3, 8]: blocks

TNFA
BioMAP readout [4]: yes

ceramide
cell damage as release of cytoplasmic lactate dehydrogenase into the supernatant [5]: enhanced

B1: IFN-γ: cytokine added to HUVEC (protein)
chain: QDPYVKEAENLKKYFNAGHSDVADNGTLFLGILKNWKEESDRKIMQSQIVSFYFKLFKNFKDDQSIQKSVETIKEDMNVKFFNSNKKKRDDFEKLTNYSVTDLNVQRKAIHELIQVMAELSPAAKTGKRKRSQMLFRGRRASQ
ICAM-1 level ([6]; TNF-α 5 ng/ml, IFN-γ 100 ng/ml, IL-1 1 ng/ml): increased
HLA-DR level [6]: increased
MIG level [6]: increased
